Reference: publication PMC3525726 (Cancer research, 2012)

How the values were obtained:
Assay type in all cases: biochemical
ABCC10 (MRP7) [1] = target: T1, ABCC10 (MRP7) (Homo sapiens, UniProt Q5T3U5); assay: Pi release ATPase inhibition assay; conditions: 5 mM ATP, Mg2+, pH 7.5, 37 °C; crude membranes
T1 sequence (Q5T3U5 1-1492): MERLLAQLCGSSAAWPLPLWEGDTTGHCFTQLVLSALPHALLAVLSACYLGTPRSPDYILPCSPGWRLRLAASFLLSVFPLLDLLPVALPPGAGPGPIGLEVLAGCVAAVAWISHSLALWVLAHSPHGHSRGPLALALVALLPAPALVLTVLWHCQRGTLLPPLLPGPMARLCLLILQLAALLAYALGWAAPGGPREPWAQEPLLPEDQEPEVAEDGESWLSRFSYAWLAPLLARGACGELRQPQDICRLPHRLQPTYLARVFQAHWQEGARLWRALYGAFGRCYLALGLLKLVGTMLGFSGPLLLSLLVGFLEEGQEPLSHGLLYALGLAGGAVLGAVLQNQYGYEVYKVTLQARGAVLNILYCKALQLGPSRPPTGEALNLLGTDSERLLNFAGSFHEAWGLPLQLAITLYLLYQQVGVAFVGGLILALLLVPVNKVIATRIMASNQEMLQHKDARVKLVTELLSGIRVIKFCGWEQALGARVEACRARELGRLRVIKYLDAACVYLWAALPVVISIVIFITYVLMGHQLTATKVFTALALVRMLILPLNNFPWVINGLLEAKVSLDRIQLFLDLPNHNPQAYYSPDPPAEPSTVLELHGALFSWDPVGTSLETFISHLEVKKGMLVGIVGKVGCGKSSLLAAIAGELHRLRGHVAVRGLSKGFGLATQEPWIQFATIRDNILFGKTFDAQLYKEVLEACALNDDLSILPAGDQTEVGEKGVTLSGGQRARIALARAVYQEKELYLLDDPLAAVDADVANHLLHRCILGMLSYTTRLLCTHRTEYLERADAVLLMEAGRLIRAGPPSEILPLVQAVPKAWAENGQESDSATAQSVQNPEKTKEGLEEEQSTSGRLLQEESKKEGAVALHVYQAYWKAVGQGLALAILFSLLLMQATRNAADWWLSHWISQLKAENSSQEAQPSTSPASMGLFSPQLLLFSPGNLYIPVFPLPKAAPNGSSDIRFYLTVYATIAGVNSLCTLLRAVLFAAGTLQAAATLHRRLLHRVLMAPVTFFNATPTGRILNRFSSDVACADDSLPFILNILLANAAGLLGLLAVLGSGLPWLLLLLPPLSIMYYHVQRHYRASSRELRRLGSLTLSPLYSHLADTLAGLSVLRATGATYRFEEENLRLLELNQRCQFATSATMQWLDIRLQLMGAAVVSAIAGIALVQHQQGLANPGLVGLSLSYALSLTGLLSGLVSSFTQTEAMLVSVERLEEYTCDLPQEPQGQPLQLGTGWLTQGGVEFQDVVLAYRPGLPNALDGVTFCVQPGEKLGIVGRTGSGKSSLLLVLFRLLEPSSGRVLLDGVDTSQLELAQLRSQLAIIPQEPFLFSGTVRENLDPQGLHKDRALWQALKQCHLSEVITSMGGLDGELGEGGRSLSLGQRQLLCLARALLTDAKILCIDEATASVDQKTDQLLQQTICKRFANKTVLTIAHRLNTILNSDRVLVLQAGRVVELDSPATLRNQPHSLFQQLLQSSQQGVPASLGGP

ABCC10 (MRP7) [2] = target: T1, ABCC10 (MRP7); assay: Pi release ATPase inhibition assay; conditions: read-out: % inhibition at 0.625 μM
ABCC10 (MRP7) [3] = target: T1, ABCC10 (MRP7); assay: Pi release ATPase stimulation assay; conditions: 5 mM ATP, Mg2+, pH 7.5, 37 °C; crude membranes
ABCC10 (MRP7) [4] = target: T1, ABCC10 (MRP7); assay: Pi release ATPase stimulation assay; conditions: 5 mM ATP, Mg2+, pH 7.5, 37 °C; crude membranes; remark: listed apart in the source
ABCC10 (MRP7) [5] = target: T1, ABCC10 (MRP7); assay: Pi release ATPase stimulation assay; conditions: 5 mM ATP, Mg2+, pH 7.5, 37 °C; crude membranes; remark: listed apart in the source

SMILES: Cc1ccc(NC(=O)c2ccc(CN3CCN(C)CC3)cc2)cc1Nc1nccc(-c2cccnc2)n1 [imatinib]
- % inhibition at 5 μM (ABCC10 (MRP7) [1]): cepharanthine, sorafenib, imatinib, nilotinib, erlotinib and lapatinib were effective inhibitors of ABCC10 ATPase activity

SMILES: C#Cc1cccc(Nc2ncnc3cc(OCCOC)c(OCCOC)cc23)c1 [erlotinib]
- inhibition at 0.625 µM (ABCC10 (MRP7) [2]): 47%

SMILES: Nc1ccn([C@@H]2O[C@H](CO)[C@@H](O)[C@@H]2O)c(=O)n1 [Ara-C]
- % stimulation of ATPase activity at 0.625 μM (ABCC10 (MRP7) [3]): 31.8%

SMILES: CC(=O)O[C@H]1C(=O)[C@@]2(C)[C@H]([C@H](OC(=O)c3ccccc3)[C@]3(O)C[C@H](OC(=O)[C@H](O)[C@@H](NC(=O)c4ccccc4)c4ccccc4)C(C)=C1C3(C)C)[C@]1(OC(C)=O)CO[C@@H]1C[C@@H]2O [paclitaxel]
- % stimulation of ATPase activity at 5 μM (ABCC10 (MRP7) [4]): 15%

SMILES: C[C@]12CC[C@@H]3c4ccc(O)cc4CC[C@H]3[C@@H]1CC[C@@H]2O[C@@H]1O[C@H](C(=O)O)[C@@H](O)[C@H](O)[C@H]1O [E217βG]
- % stimulation of ATPase activity (ABCC10 (MRP7) [5]): 30%

SMILES: Cc1cn(-c2cc(NC(=O)c3ccc(C)c(Nc4nccc(-c5cccnc5)n4)c3)cc(C(F)(F)F)c2)cn1 [nilotinib]
- inhibition at 0.625 µM (ABCC10 (MRP7) [2]): 41.4%

SMILES: CNC(=O)c1cc(Oc2ccc(NC(=O)Nc3ccc(Cl)c(C(F)(F)F)c3)cc2)ccn1 [sorafenib]
- % inhibition at 5 μM (ABCC10 (MRP7) [1]): cepharanthine, sorafenib, imatinib, nilotinib, erlotinib and lapatinib were effective inhibitors of ABCC10 ATPase activity

SMILES: CC(=O)O[C@@]12CO[C@@H]1C[C@H](O)[C@@]1(C)C(=O)[C@H](O)C3=C(C)[C@@H](OC(=O)[C@H](O)[C@@H](NC(=O)OC(C)(C)C)c4ccccc4)C[C@@](O)([C@@H](OC(=O)c4ccccc4)[C@H]21)C3(C)C [docetaxel]
- % stimulation of ATPase activity at 5 μM (ABCC10 (MRP7) [4]): 24.38%
